Results published in patent publication US12630532B2, “Indole-substituted quinolines and their combination with Plk1 inhibitors for the treatment of cancer” (UNIVERSITY OF KENTUCKY RESEARCH FOUNDATION, priority 2021, dated 2026).

Tested on: LS174T colon cancer cell xenografts
Assay: In vivo antineoplastic activity and gross toxicity in LS174T xenografts
Description: Mouse studies were carried out with approval from the Institutional Animal Care and Use Committee of the University of Kentucky (2020-3531). All methods were performed in accordance with the relevant guidelines and regulations according to protocols. […] After tumors were established, mice were randomized according to tumor volume and divided into groups for treatments (five mice in each group, two tumors on each mouse).
The in vivo evaluation of ISQ-1 and BI2536 followed the approved protocol. After tumors were established, ISQ-1 was formulated in a mixture of Tween-80 (5%), DMSO (10%), PEG400 (25%) and PBS (60%) and was intraperitoneally administered to the ISQ-1 group at a daily dose of 20 mg/kg mouse body weight. The first day of treatment was set as day 0. At days 0, 4, and 7, BI2536 dissolved in 0.1 N HCl and then diluted 5-fold using 0.9% NaCl was given via gavage to the B12536 group. Mice in combination therapy group were treated with both ISQ-1 and BI2536 following aforementioned dosing schedules. At day 11 treatment was ceased and mice were sacrificed. Tumors and mouse weights were measured, and tumor volumes were calculated as Length×width^2/2.
Major biological assays were performed at least twice. Data were shown as mean SEM. For the mice study, five mice with two tumors on the lower flanks of each mouse were used in each treatment group. Sizes of the two tumors from each mouse were averaged, standardized by the tumor size on day 0, and log-transformed. ANOVA with Tukey's HSD test was used to compare the tumor size at the end of the study (day 11) between the combination therapy of ISQ-1 and B12536 and each single compound as well as the control. The equal variance assumption of ANOVA was assessed by Bartlett's test. All statistical studies were overseen in collaboration with a statistician in the University of Kentucky's Markey Cancer Center.

## CN(C)c1ccc2cc(-c3cn(C)c4ccccc34)c(N)nc2c1 [ISQ-1, N^7,N^7-Dimethyl-3-(1-methyl-1H-indol-3-yl)quinoline-2,7-diamine]
Nude mice, ISQ-1 20 mg/kg daily i.p., BI2536 30 mg/kg twice a week by gavage, day 11
  tumor growth of LS174T xenografts: inhibited tumor growth but did not induce tumor regression
Same dosing as efficacy study
  gross toxicities on the basis of mouse weight measurements: No gross toxicities
